Experimental findings from ChEMBL document CHEMBL4118077, “Synthesis of thiazole linked indolyl-3-glyoxylamide derivatives as tubulin polymerization inhibitors” (Eur J Med Chem, 2017) are described below.

Molecules are shown by their SMILES.

In general, IC50 refers to the point on the concentration scale where inhibition reaches its midpoint. As usually defined, the inhibition is the percentage by which the read-out fell short of the control. The low end stands for a response near the control, the high end for a response far below the control.

One experiment concerns HCT-15. Nature of the experiment: Antiproliferative activity against human HCT15 cells after 48 hrs by MTT assay. The settings on record: HCT-15, 48 h. It counts as functional, cell-based. (In general: Tetrazolium assays rely on reduction of a dye to a coloured formazan, in cell work by metabolically active cells.)
The next experiment concerns PC-3. Nature of the experiment: Antiproliferative activity against human PC3 cells after 48 hrs by MTT assay. It counts as functional, cell-based. The settings on record: PC-3, 48 h.
The subject of the next experiment is DU-145. In words: Antiproliferative activity against human DU145 cells after 48 hrs by MTT assay. The experiment is classed as functional, cell-based. Particulars: DU-145, 48 h.
A further experiment deals with A549. In words: Antiproliferative activity against human A549 cells after 48 hrs by MTT assay. The settings on record: A549, 48 h. The experiment is classed as functional, cell-based.
Another experiment is filed under the species Sus scrofa. Nature of the experiment: Inhibition of porcine brain tubulin polymerization at 5 uM measured for 1 hr by fluorescence assay relative to control.

For `COc1ccc2sc(NC(=O)Cn3cc(C(=O)C(=O)NC4CC4)c4ccccc43)nc2c1`, the half-inhibitory concentration (IC50) was > 50 µM in the experiment with HCT-15, 9.4 µM in the experiment on PC-3, 5.5 µM with DU-145 and > 50 µM in the experiment on A549.
Consider `CCOC(=O)c1nc(NC(=O)Cn2cc(C(=O)C(=O)Nc3ccccc3)c3ccccc32)sc1C`, for which the IC50 stood at 2.5 µM in the experiment with HCT-15, 6.1 µM in the experiment on PC-3, 0.14 µM with DU-145 and 6.3 µM in the experiment on A549. Besides, in the experiment listed under Sus scrofa, the inhibition turned out to be 58.4%.
For the compound `O=C(Cn1cc(C(=O)C(=O)NC2CC2)c2ccccc21)Nc1nccs1`, the half-maximal inhibitory concentration (IC50) in the experiment on PC-3, in the experiment with DU-145 and with A549 was > 50 µM each time.
Take `O=C(Cn1cc(C(=O)C(=O)Nc2ccccc2)c2cc(Br)ccc21)Nc1nccs1`: the IC50 in the experiment on HCT-15 was > 50 µM; with PC-3, > 50 µM; with DU-145 it was 25.5 µM; with A549, 43.7 µM.
Turning to `COc1ccc2sc(NC(=O)Cn3cc(C(=O)C(=O)N4CCCCC4)c4ccccc43)nc2c1`, the half-maximal inhibitory concentration (IC50) was > 50 µM with HCT-15, 4.2 µM in the experiment on PC-3, 6.4 µM with DU-145 and > 50 µM in the experiment with A549. Also, the inhibition in the experiment listed under Sus scrofa worked out at 38.5%.
`O=C(Cn1cc(C(=O)C(=O)Nc2ccccc2)c2ccccc21)Nc1nccs1`: the IC50 is > 50 µM in the experiment on HCT-15, > 50 µM in the experiment with PC-3, 5.15 µM in the experiment with DU-145 and 20.9 µM in the experiment with A549. Moreover, in the experiment listed under Sus scrofa, the inhibition was 23.5%.
Take `CCOC(=O)c1nc(NC(=O)Cn2cc(C(=O)C(=O)NC3CC3)c3ccccc32)sc1C`: the IC50 was 10.3 µM in the experiment with HCT-15, 8.5 µM with PC-3, 4.6 µM in the experiment with DU-145 and 20.9 µM in the experiment on A549. Moreover, the inhibition in the experiment filed under Sus scrofa worked out at 21.3%.
With `COc1ccc2sc(NC(=O)CCn3cc(C(=O)C(=O)N4CCCCC4)c4ccccc43)nc2c1`, the concentration for half-maximal inhibition (IC50) in the experiment with HCT-15 was > 50 µM; in the experiment with PC-3, 15.3 µM; in the experiment with DU-145, 12.3 µM; in the experiment on A549, > 50 µM.
In the case of `COc1ccc2sc(NC(=O)Cn3cc(C(=O)C(=O)Nc4ccccc4)c4cc(Br)ccc43)nc2c1`, the 50% inhibitory concentration (IC50) is 12.5 µM in the experiment on HCT-15, 13.6 µM with PC-3, 5.6 µM in the experiment on DU-145 and > 50 µM in the experiment on A549. The same compound came in with an inhibition in the experiment filed under Sus scrofa of 23.3%.
For `O=C(Cn1cc(C(=O)C(=O)Nc2ccccc2)c2ccccc21)Nc1nc(-c2ccccc2)cs1`, the 50% inhibitory concentration (IC50) in the experiment with HCT-15 is > 50 µM; in the experiment with PC-3, > 50 µM; with DU-145 it was 34.3 µM; in the experiment on A549 it was > 50 µM.
Turning to `O=C(CCn1cc(C(=O)C(=O)N2CCCCC2)c2ccccc21)Nc1nccs1`, the IC50 with HCT-15, in the experiment on PC-3, in the experiment on DU-145 and in the experiment with A549 was > 50 µM in each case.
Take `O=C(Cn1cc(C(=O)C(=O)N2CCCCC2)c2ccccc21)Nc1nccs1`: the half-maximal inhibitory concentration (IC50) in the experiment with HCT-15, in the experiment with PC-3, in the experiment on DU-145 and in the experiment on A549 was > 50 µM each time.
On to `O=C(Cn1cc(C(=O)C(=O)N2CCCCC2)c2ccccc21)Nc1nc(-c2ccccc2)cs1`, for which the IC50 is > 50 µM in the experiment with HCT-15, > 50 µM in the experiment with PC-3, 25.4 µM in the experiment on DU-145 and > 50 µM in the experiment with A549.
`Cc1ccc(-c2csc(NC(=O)Cn3cc(C(=O)C(=O)Nc4ccccc4)c4cc(Br)ccc43)n2)cc1`: the IC50 is > 50 µM in the experiment with HCT-15, > 50 µM with PC-3, 10.2 µM in the experiment with DU-145 and > 50 µM in the experiment on A549.
For `CCOC(=O)c1nc(NC(=O)CCn2cc(C(=O)C(=O)N3CCCCC3)c3ccccc32)sc1C`, the IC50 in the experiment with HCT-15, with PC-3, in the experiment on DU-145 and in the experiment with A549 was > 50 µM throughout. In the experiment filed under Sus scrofa, this compound had an inhibition of 12.2%.
With `CCOC(=O)c1nc(NC(=O)Cn2cc(C(=O)C(=O)N3CCCCC3)c3ccccc32)sc1C`, the 50% inhibitory concentration (IC50) in the experiment with PC-3 was 8.2 µM; with DU-145 it was 3.21 µM; with A549, > 50 µM.
Turning to `O=C(Cn1cc(C(=O)C(=O)NC2CC2)c2ccccc21)Nc1nc(-c2ccccc2)cs1`, the 50% inhibitory concentration (IC50) in the experiment on PC-3 is > 50 µM; with DU-145, > 50 µM; in the experiment with A549 it was 41.8 µM.
Regarding `O=C(CCn1cc(C(=O)C(=O)N2CCCCC2)c2ccccc21)Nc1nc(-c2ccccc2)cs1`, the half-maximal inhibitory concentration (IC50) with HCT-15, in the experiment on PC-3, in the experiment with DU-145 and in the experiment with A549 was > 50 µM in each case.
Consider `Cc1ccc(-c2csc(NC(=O)CCn3cc(C(=O)C(=O)N4CCCCC4)c4ccccc43)n2)cc1`, for which the IC50 in the experiment with HCT-15, in the experiment on PC-3, in the experiment with DU-145 and with A549 was > 50 µM throughout.
`COc1cc([C@@H]2c3cc4c(cc3[C@H](O)[C@H]3COC(=O)[C@H]23)OCO4)cc(OC)c1OC` came in with an inhibition in the experiment listed under Sus scrofa of 78%.
